Measured values reported in patent US8802664B2 (Bioproject, priority 2010, dated 2014).

Molecular target: T1, human H4 receptor (Homo sapiens, UniProt Q9H3N8)
T1 construct: expressed in transfected cells
Assay: [3H]Histamine binding on membranes of CHO cells stably expressing human H4 receptor
Conditions: not given
Summary of the method: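 CHO-hH4 membranes 20 μg/well; buffer 50 mM Tris/HCl, 0.5 mM EDTA, pH 7.4; NSB: 10 μM JNJ 7777120 (BP1.2404); GF/B filtration (PEI-presoaked), 3 ice-cold washes; scintillation counting.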

Ki or IC50 activity class [nM] | Structure (SMILES)
< 300 | CN1CCC(OC(c2cc(F)cc(F)c2)c2nc3ccccc3s2)CC1 (stereo not drawn) [Example 15, 2-[(3,5-difluorophenyl)(1-methyl-piperidin-4-yloxy)methyl]benzothiazole]
< 300 | CN1CCC(OC(c2nc3ccccc3s2)c2ccccc2F)CC1 (stereo not drawn) [Example 6, 2-[(2-fluorophenyl)(1-methylpiperidin-4-yloxy)methyl]benzothiazole]
< 30 | CN1CCC(OC(c2ccc3ccsc3c2)c2nc3ccccc3[nH]2)CC1 (stereo not drawn) [Example 556, 2-[benzo[b]thiophen-6-yl(1-methylpiperidin-4-yloxy)methyl]-1H-benzimidazole]
< 300 | CN1CCC(OC(c2cccc(-c3ccc(NC(=O)OC(C)(C)C)cc3)c2)c2nc3ccccc3s2)CC1 (stereo not drawn) [Example 143, {3′-[benzothiazol-2-yl(1-methylpiperidin-4-yloxy)methyl]biphenyl-4-yl}carbamic acid tert-butyl ester]
< 300 | CN1CCC(OC(c2cccc(CCC(=O)OC(C)(C)C)c2)c2nc3ccccc3s2)CC1 (stereo not drawn) [Example 208, 3-{3-[benzothiazol-2-yl(1-methylpiperidin-4-yloxy)methyl]phenyl}propionic acid tert-butyl ester]
< 30 | Cc1ccc(C(OC2CCN(C)CC2)c2nc3ccccc3[nH]2)cc1 (single isomer, unassigned) [Example 253, 2-[(1-methylpiperidin-4-yloxy)-p-tolylmethyl]-1H-benzimidazole]
< 1000 | CN1CCC(NC(c2cccc(Br)c2)c2nc3ccccc3[nH]2)CC1 (stereo not drawn) [Example 64, [(1H-benzimidazol-2-yl)(3-bromophenyl)methyl](1-methylpiperidin-4-yl)amine]
< 300 | CN1CCC(OC(c2cccc(OC3CNC3)c2)c2nc3ccccc3s2)CC1 (stereo not drawn) [Example 402, 2-[[3-(azetidin-3-yloxy)phenyl](1-methylpiperidin-4-yloxy)methyl]benzothiazole]
< 300 | CN1CCC(OC(c2cccc(SCCO)c2)c2nc3ccccc3[nH]2)CC1 (stereo not drawn) [Example 157, 2-{3-[(1H-benzimidazol-2-yl)(1-methylpiperidin-4-yloxy)methyl]phenylsulfanyl}ethanol]
< 30 | CN1CCC(NC(c2cccc(SCc3ccccc3)c2)c2nc3ccccc3[nH]2)CC1 (stereo not drawn) [Example 104, [(1H-benzimidazol-2-yl)(3-benzylsulfanylphenyl)methyl](1-methylpiperidin-4-yl)amine]
< 1000 | CN1CCC(OC(c2cccc(OCCCn3cncn3)c2)c2nc3ccccc3s2)CC1 (stereo not drawn) [Example 348, 2-{(1-methylpiperidin-4-yloxy)[3-(3-[1,2,4]triazol-1-yl-propoxy)phenyl]methyl}benzothiazole]
< 1000 | CN1CCC(OC(c2cccc(OCCNCC(=O)OC(C)(C)C)c2)c2nc3ccccc3[nH]2)CC1 (stereo not drawn) [Example 361, (2-{3-[(1H-benzimidazol-2-yl)(1-methylpiperidin-4-yloxy)methyl]phenoxy}ethylamino)acetic acid tert-butyl ester]

More lines, now with the values behind:

Structure (SMILES) | Ki or IC50 activity class [nM]
CN1CCC(OC(c2cccc(C=CCCCN)c2)c2nc3ccccc3[nH]2)CC1 (stereo not drawn) [Example 421, 5-{3-[(1H-benzimidazol-2-yl)(1-methylpiperidin-4-yloxy)methyl]phenyl}pent-4-enylamine] | < 30
CN1CCC(OC(c2cccc(OCC3CCCCC3)c2)c2nc3ccccc3s2)CC1 (stereo not drawn) [Example 285, 2-[(3-Cyclohexylmethoxyphenyl)(1-methylpiperidin-4-yloxy)methyl]benzothiazole] | < 1000
CN1CCC(OC(c2cccc(OCC3CCCN(C)C3)c2)c2nc3ccccc3s2)CC1 (stereo not drawn) [Example 379, 2-[[3-(1-methylpiperidin-3-ylmethoxy)phenyl](1-methylpiperidin-4-yloxy)methyl]benzothiazole] | < 1000
CN1CCC(OC(c2cccc(SCCCCCCO)c2)c2nc3ccccc3[nH]2)CC1 (stereo not drawn) [Example 295, 6-{3-[(1H-benzimidazol-2-yl)(1-methylpiperidin-4-yloxy)methyl]phenylsulfanyl}hexan-1-ol] | < 300
CN1CCC(OC(c2cccc(I)c2)c2nc3ccccc3s2)CC1 (stereo not drawn) [Example 41, 2-[(3-iodophenyl)(1-methylpiperidin-4-yloxy)methyl]benzothiazole] | < 30
CN1CCC(OC(c2cccc(C#CCCCNC(=N)NC(=O)OC(C)(C)C)c2)c2nc3ccccc3[nH]2)CC1 (stereo not drawn) [Example 357, N-tert-butoxycarbonyl-N′-(5-{3-[(1H-benzimidazol-2-yl)(1-methylpiperidin-4-yloxy)methyl]phenyl}pent-4-ynyl)guanidine] | < 300
CN1CCC(OC(c2ccc(OC(F)(F)F)cc2)c2nc3ccccc3s2)CC1 (stereo not drawn) [Example 24, 2-[(1-methylpiperidin-4-yloxy)(4-trifluoromethoxyphenyl)methyl]benzothiazole] | < 1000
CN1CC(COC(c2nc3ccccc3[nH]2)c2cc(OC(F)(F)F)ccc2F)C1 (stereo not drawn) [Example 516] | < 300
CN1CCC(OC(c2cccc(C#CCCCN)c2)c2nc3ccccc3[nH]2)CC1 (stereo not drawn) [Example 294, 5-{3-[(1H-benzimidazol-2-yl)(1-methylpiperidin-4-yloxy)methyl]phenyl}pent-4-ynylamine] | < 30
CCCCOc1cccc(C(OC2CCN(C)CC2)c2nc3ccccc3s2)c1 (stereo not drawn) [Example 92, 2-[(3-butoxyphenyl)(1-methylpiperidin-4-yloxy)methyl]benzothiazole] | < 300
CN1CCC(OC(c2cccc(SC(C)(C)CCO)c2)c2nc3ccccc3s2)CC1 (stereo not drawn) [Example 242, 3-{3-[benzothiazol-2-yl(1-methylpiperidin-4-yloxy)methyl]phenylsulfanyl}-3-methyl-butan-1-ol] | < 1000
CN1CCC(OC(c2cccc(SCCn3ccnn3)c2)c2nc3ccccc3s2)CC1 (stereo not drawn) [Example 241, 2-{(1-methylpiperidin-4-yloxy)[3-(2-[1,2,3]triazol-1-yl-ethylsulfanyl)phenyl]methyl}benzothiazole] | < 300
CN1CCC(OC(c2cccc(OCCCCn3nccn3)c2)c2nc3ccccc3s2)CC1 (stereo not drawn) [Example 315, 2-{(1-methylpiperidin-4-yloxy)[3-(4-[1,2,3]triazol-2-yl-butoxy)phenyl]methyl}benzothiazole] | < 1000
CC(=O)CCCOc1cccc(C(OC2CCN(C)CC2)c2nc3ccccc3s2)c1 (stereo not drawn) [Example 186, 5-{3-[benzothiazol-2-yl(1-methylpiperidin-4-yloxy)methyl]phenoxy}pentan-2-one] | < 1000
CN1CCC(OC(c2cccc(N3CCC(N)CC3)c2)c2nc3ccccc3s2)CC1 (stereo not drawn) [Example 405, 1-{3-[benzothiazol-2-yl(1-methylpiperidin-4-yloxy)methyl]phenyl}piperidin-4-ylamine] | < 300
CN1CCC(OC(c2cccc(OCC=CCN)c2)c2nc3ccccc3s2)CC1 (stereo not drawn) [Example 431, 4-{3-[benzothiazol-2-yl(1-methylpiperidin-4-yloxy)methyl]phenoxy}but-2-enylamine] | < 30
c1ccc2[nH]c(C(OC3CCNCC3)c3ccsc3)nc2c1 (stereo not drawn) [Example 538] | < 1000

Same assay, conditions: human H4 receptor; evaluated in the GTPγ[35S] assay or in the [3H]histamine binding assay (not stated which per compound); Ki or IC50 class

Ki or IC50 activity class [nM] | Structure (SMILES)
< 30 | CN1CCC(OC(c2cccc(N3CCC(O)C3)c2)c2nc3ccccc3s2)CC1 (stereo not drawn) [Example 407, 1-{3-[benzothiazol-2-yl(1-methylpiperidin-4-yloxy)methyl]phenyl}pyrrolidin-3-ol]
